# From US11324798B2, “Materials and methods for treatment of inflammation” (CYTOGEL PHARMA, LLC, priority 2010, dated 2022)
# “Also recorded” adds a separate entry of the source.
# Tested on: mustard oil-induced acute neurogenic inflammation in the mouse ear
# Assay: Filtered and non-filtered CYT-1010 on 5% mustard oil-induced acute neurogenic ear swelling in mice (Example 4)
# Type: in vivo
# Protocol: Stock solution of the 100 μg/ml concentration of CYT-1010 (5.5 ml) was prepared fresh every experimental day with 20% hydroxypropyl-βcyclodextrin (HPCD) dissolved in sterile distilled water, shaken properly and sonicated. The vehicle was 20% HPCD dissolved in sterile distilled water. Further dilutions of the compound for the smaller administered doses were made with this vehicle. The applied concentrations were filtered through a 0.2 μm sterile teflon filter. […] The lower concentrations looked clear immediately. Non-filtered solutions were administered in the same concentrations in the parallel groups for comparison. Three doses of both the filtered and non-filtered CYT-1010 solutions (1, 10 and 100 μg/kg; 0.1 ml/10 g from the 0.1, 1 and 10 μg/ml solutions) were administered i.v. 5 min before the induction of the inflammation. Animals of the control group were treated with the same volume of the HPCD after or without the same filtration procedure.
# Mice were anaesthesized with urethane (1.2 g/kg i.p.) to achieve a long-lasting deep anaesthesia and minimize respiratory depression. Ten μl of 5% mustard oil dissolved in paraffin oil was smeared on both sides of both ears. Mustard oil in this concentration selectively activates Transient Receptor Potential A1 (TRPA1) on capsaicin-sensitive peptidergic sensory nerves and induces the release of sensory neuropeptides (Banvolgyi et al., 2004). The released calcitonin gene-related peptide (CGRP) and tachykinins such as substance P (SP) in the innervated area evoke vasodilatation and plasma protein extravasation collectively called acute neurogenic inflammation (Helyes et al., 1997, 2001, 2006; Borzsei et a., 2008).
# CYT-1010 (1, 10 and 100 μg/kg; 0.1 ml/10 g from the 0.1, 1, 10 μg/ml solutions) was administered i.v. 5 min before the induction of the inflammation by mustard oil smearing. Mice in the control group were treated with the same volume of the vehicle, 20% HPCD dissolved in sterile distilled water
# There were 8 mice in each experimental group, and 9 in the 1 μg/kg filtered CYT-1010 dose group […].
# 65 male CD1 mice (25-35 g) were divided into 8 experimental groups: Group 1: non-filtered vehicle-treated controls (n=8); Group 2: non-filtered 1 μg/kg CYT-1010 (n=8); Group 3: non-filtered 10 μg/kg CYT-1010 (n=8); Group 4: non-filtered 100 μg/kg CYT-1010 (n=8); Group 5: filtered vehicle-treated controls (n=8); Group 6: filtered 1 μg/kg CYT-1010 (n=9); Group 7: filtered 10 μg/kg CYT-1010 (n=8); and Group 8: filtered 100 μg/kg CYT-1010 (n=8).
# This study was undertaken in blocks with 16-17 mice per occasion. The whole set of data was obtained during 4 days (12, 13, 16, 22 Apr. 2010). There were 2 or 3 solvent-treated rats every day and the remaining 12 animals were randomised to receive each treatment.
# The diameter of the ear was measured with an engineers' micrometer before the treatment and 4 times during the 3 h-examination period (20 min, 1 h, 2 h and 3 h). Edema was expressed in % compared to the initial control values (Banvolgyi et al., 2004; Borzsei et al., 2008). The compound was administered i.v. 5 min before mustard oil smearing in 3 doses (1, 10, 100 μg/kg) in separate groups after sterile filtration or without filtration. Animals of the control group were treated with the same volume of the vehicle
# Results are expressed as the mean±s.e.m. Statistical significance was performed with one-way ANOVA followed by Dunnett's post-hoc test (modified t-test) when the data of the CYT-1010-treated groups were compared to the respective vehicle-treated controls at certain time points. The areas under the time-dependent percentage ear swelling curves (AUC) were also calculated and analyzed with the same statistics to compare the whole edema responses of the CYT-1010-treated mice during the 3 h-experimental period to the respective control group. *p<0.05 was considered to be significant. […]
structure (smiles),measurement,setting,value
"NC(Cc1ccc(O)cc1)C(=O)NC1CCCCNC(=O)C(Cc2ccccc2)NC(=O)C(Cc2c[nH]c3ccccc23)NC1=O [CYT-1010, H-Tyr-c-[D-Lys-Trp-Phe]]",Effect of filtration on the inhibitory action of CYT-1010,"0.2 μm sterile filter, filtered vs non-filtered",moderately decreases
same,AUC of time course of percentage ear swelling,"filtered (0.2 μm), 1 μg/kg i.v., control 50.04±6.96, NS",51.47±6.93 units
same,AUC of time course of percentage ear swelling,"filtered (0.2 μm), 10 μg/kg i.v., control 50.04±6.96, NS",33.68±3.79 units
same,AUC of time course of percentage ear swelling,"filtered (0.2 μm), 100 μg/kg i.v., control 50.04±6.96, NS",33.97±5.62 units
same,Effect on mustard oil-induced ear swelling,"filtered, 1 μg/kg i.v.",did not influence ear swelling; also recorded: did not have any effect
same,Effect on mustard oil-induced ear swelling,"filtered, 10 μg/kg and 100 μg/kg i.v., 20 min",inhibited significantly
same,Effect on mustard oil-induced ear swelling,"filtered, two higher doses (10 and 100 μg/kg i.v.)",moderate inhibition
same,Effect on mustard oil-induced ear swelling,"non-filtered, 1 μg/kg i.v.",did not significantly diminish ear swelling
same,AUC of time course of percentage ear swelling,"non-filtered, 1 μg/kg i.v., control 44.02±6.97, NS",40.33±5.32 units
same,Extent of the inhibition of ear swelling,"non-filtered, 10 μg/kg and 100 μg/kg i.v., both cases",about 50%
same,Effect on mustard oil-induced ear swelling,"non-filtered, 10 μg/kg and 100 μg/kg i.v., from 20 min until the 2 hour time point",significantly inhibited; also recorded: significantly reduced
same,AUC of time course of percentage ear swelling,"non-filtered, 10 μg/kg i.v., control 44.02±6.97, P<0.05",24.21±2.75 units
same,AUC of time course of percentage ear swelling,"non-filtered, 100 μg/kg i.v., control 44.02±6.97, P<0.01",21.71±1.72 units
